Broadly, the IC50 is the concentration that inhibits the measured activity by half. High values mean a need for much substance, low ones inhibition by little substance.

Results on 7 compounds are retold here after patent US9475817B2 (BRISTOL-MYERS SQUIBB COMPANY, priority 2012, dated 2016).

In one assay the target is CK1ε (Homo sapiens (Human), UniProt P49674). As to the kind of experiment: CK1ε kinase assay (Caliper LabChip, fluoresceinated peptide substrate). The note with it: 200 pM CK1ε, 50 μM ATP, 1.5 μM peptide substrate, 22 hours room temperature. The assay is classed as biochemical. On the procedure: (§1) CK1ε and CK1δ Kinase Assays
(§2) The kinase assay was performed in V-bottom 384-well plates. […] The reaction was incubated at room temperature for 22 hours and terminated by adding 45 μl of 35 mM EDTA to each sample. […] Compounds were dissolved at 10 mM in dimethylsulfoxide (DMSO) and evaluated at eleven concentrations. IC50 values were derived by non-linear regression analysis.

Another assay concerns the target CK1δ (Homo sapiens (Human), UniProt P48730). As to the kind of experiment: CK1δ kinase assay (Caliper LabChip, fluoresceinated peptide substrate). The assay is classed as biochemical. The note with it: 200 pM CK1δ, 50 μM ATP, 1.5 μM peptide substrate, 22 hours room temperature. On the procedure: as §1, §2

Sequence of CK1ε (P49674 whole entry): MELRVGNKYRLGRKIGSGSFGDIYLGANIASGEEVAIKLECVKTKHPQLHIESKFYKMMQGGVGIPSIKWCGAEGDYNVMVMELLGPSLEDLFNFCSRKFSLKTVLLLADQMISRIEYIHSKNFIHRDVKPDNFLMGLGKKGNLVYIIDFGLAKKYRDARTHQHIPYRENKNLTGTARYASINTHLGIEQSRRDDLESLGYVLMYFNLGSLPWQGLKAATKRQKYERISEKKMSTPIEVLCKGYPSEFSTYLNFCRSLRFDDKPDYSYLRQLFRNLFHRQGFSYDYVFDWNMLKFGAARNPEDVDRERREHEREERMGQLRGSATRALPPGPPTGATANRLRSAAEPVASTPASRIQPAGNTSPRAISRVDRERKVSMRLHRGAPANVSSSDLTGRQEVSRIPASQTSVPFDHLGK
Sequence of CK1δ (P48730 whole entry): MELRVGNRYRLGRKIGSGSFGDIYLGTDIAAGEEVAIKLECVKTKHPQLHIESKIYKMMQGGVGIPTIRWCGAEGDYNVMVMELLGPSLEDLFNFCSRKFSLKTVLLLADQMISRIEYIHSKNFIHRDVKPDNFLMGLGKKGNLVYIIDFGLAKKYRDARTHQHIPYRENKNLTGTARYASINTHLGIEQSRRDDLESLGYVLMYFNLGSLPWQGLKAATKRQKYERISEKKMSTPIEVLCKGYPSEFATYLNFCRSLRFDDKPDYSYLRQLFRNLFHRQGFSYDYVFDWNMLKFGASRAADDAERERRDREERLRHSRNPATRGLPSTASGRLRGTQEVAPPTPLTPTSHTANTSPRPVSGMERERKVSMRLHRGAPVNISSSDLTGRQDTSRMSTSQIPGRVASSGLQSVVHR

For `Cn1cc(-c2ccc3nc(NC(=O)c4ccncc4F)cn3n2)c(-c2ccc(F)cc2)n1` [Compound 35, 3-fluoro-N-(6-(3-(4-fluorophenyl)-1-methyl-1H-pyrazol-4-yl)imidazo[1,2-b]pyridazin-2-yl)isonicotinamide], the IC50 at CK1ε stood at 9.1 nM; against CK1δ, 2.8 nM.

Turning to `COc1c(F)cc(C(=O)Nc2cn3nc(-c4cn(C)nc4-c4ccc(F)cc4)ccc3n2)cc1F` [Compound 61, 3,5-difluoro-N-(6-(3-(4-fluorophenyl)-1-methyl-1H-pyrazol-4-yl)imidazo[1,2-b]pyridazin-2-yl)-4-methoxybenzamide], the 50% inhibitory concentration (IC50) against CK1ε is 18.7 nM; against CK1δ, 5.7 nM.

Turning to `Cn1nc(-c2ccc(F)cc2)c(-c2ccc3nc(NC(=O)c4ccnc(F)c4)cn3n2)c1N1CCN(C[C@@H](O)C(F)(F)F)CC1` [Compound 127, (R)-2-Fluoro-N-(6-(3-(4-fluorophenyl)-1-methyl-5-(4-(3,3,3-trifluoro-2-hydroxypropyl)piperazin-1-yl)-1H-pyrazol-4-yl)imidazo[1,2-b]pyridazin-2-yl)isonicotinamide], the IC50 on CK1ε is 6.2 nM; at CK1δ it was 1 nM.

Regarding `O=C(Nc1cn2nc(-c3cn(C4CC4)nc3-c3ccc(F)cc3)ccc2n1)c1ccncc1F` [Compound 106, N-(6-(1-cyclopropyl-3-(4-fluorophenyl)-1H-pyrazol-4-yl)imidazo[1,2-b]pyridazin-2-yl)-3-fluoroisonicotinamide], the values for the IC50 against CK1ε and at CK1δ were 14 nM and 3.5 nM, respectively.

For `Cn1nc(-c2ccc(F)cc2)c(-c2ccc3nc(NC(=O)c4ccnc(F)c4)cn3n2)c1C1CCN(CC(N)=O)CC1` [Compound 157, N-(6-(5-(1-(2-Amino-2-oxoethyl)piperidin-4-yl)-3-(4-fluorophenyl)-1-methyl-1H-pyrazol-4-yl)imidazo[1,2-b]pyridazin-2-yl)-2-fluoroisonicotinamide], the IC50 was determined as 1.3 nM on CK1ε and 0.3 nM on CK1δ.

On to `Cn1cc(-c2ccc3nc(NC(=O)c4ccncc4)cn3n2)c(-c2ccc(F)cc2)n1` [Compound 1, N-(6-(3-(4-Fluorophenyl)-1-methyl-1H-pyrazol-4-yl)imidazo[1,2-b]pyridazin-2-yl)isonicotinamide], for which the results for the IC50 against CK1ε and at CK1δ were 7.4 nM and 5.2 nM, respectively.

As to `Cn1cc(-c2ccc3nc(NC(=O)c4cc(F)ccc4F)cn3n2)c(-c2ccc(F)cc2)n1` [Compound 51, 2,5-difluoro-N-(6-(3-(4-fluorophenyl)-1-methyl-1H-pyrazol-4-yl)imidazo[1,2-b]pyridazin-2-yl)benzamide], the half-maximal inhibitory concentration (IC50) against CK1ε was found to be 22.9 nM; against CK1δ, 6.3 nM.
